Reference: patent US8901126B2, “Substituted imidazo[1,5-A]quinoxalin-4-ones are useful for preventing or treating storage dysfunction, voiding dysfunction and bladder/urethral diseases” (priority 2010, dated 2014)
Where a name gives a salt, the structure may show the parent alone.

How the values were obtained:
PDE9 = molecular target: T1, PDE9 (Homo sapiens, UniProt O76083); test: PDE9-inhibiting activity (SPA, 3H-cGMP degradation); type: biochemical; details: PDE9-inhibiting activity (IC50 values), cGMP 1 μM, 30° C.
T1 construct: made in house
T1 sequence (O76083 whole entry): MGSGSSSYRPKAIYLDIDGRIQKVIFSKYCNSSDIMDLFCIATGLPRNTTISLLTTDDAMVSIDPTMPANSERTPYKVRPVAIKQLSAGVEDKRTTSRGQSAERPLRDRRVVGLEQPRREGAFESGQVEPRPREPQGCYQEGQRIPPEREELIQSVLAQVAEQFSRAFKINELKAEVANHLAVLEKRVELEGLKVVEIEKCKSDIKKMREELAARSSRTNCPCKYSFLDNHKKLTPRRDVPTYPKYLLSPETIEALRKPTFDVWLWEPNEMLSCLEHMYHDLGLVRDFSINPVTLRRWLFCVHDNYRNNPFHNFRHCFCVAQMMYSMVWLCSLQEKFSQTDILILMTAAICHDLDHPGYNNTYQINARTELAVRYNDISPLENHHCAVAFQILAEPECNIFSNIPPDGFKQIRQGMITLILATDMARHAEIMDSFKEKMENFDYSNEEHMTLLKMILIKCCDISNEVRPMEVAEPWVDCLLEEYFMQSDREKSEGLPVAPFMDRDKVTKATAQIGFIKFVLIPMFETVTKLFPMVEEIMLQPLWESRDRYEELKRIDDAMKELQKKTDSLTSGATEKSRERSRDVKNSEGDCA
Procedure: The PDE9 used in the present experiment was expressed/purified by the method as in, for example, Guipponi et al., and Fisher et., al. (Fisher, D. A., et al., J. Biol. Chem., 273: pp. 15559-15564 (1998), Guipponi, M., et al., Hum. Genet., 103: pp. 386-392 (1998)).
(2) Evaluation of PDE9-Inhibiting Activity
The PDE9-inhibiting activity was measured by the following method. That is, to a buffer solution containing tris(hydroxymethyl)aminomethane-hydrochloric acid (40 mM, pH 8.0), magnesium chloride (5 mM), and 2-mercaptoethanol (4 mM) were added cGMP (1 μM) and ^3H-cGMP (0.33 μCi/ml) to give a substrate buffer solution. A test substance solution and an enzyme solution which had been adjusted to an optimal concentration were added thereto to perform a reaction at 30° C. The enzyme reaction was stopped by the addition of Scintillation Proximity Assay (SPA) Beads (Perkin Elmer, USA) containing 5 mM 3-isobutyl-1-methylxanthine (IBMX). For the enzyme activity, the amount of 5′-GMP, which is a reaction degradation product bound to SPA beads, was measured with a TopCount microplate reader (Hewlett Packard, USA).
The inhibitory rate was calculated by taking the radioactivity of the control containing no test substance as (A), taking the radioactivity of the blank containing no enzyme as (B), and taking the radioactivity of the test substance as (C), and using the following equation. Inhibitory rate=100−{(C)−(B)/(A)−(B)}×100(%)

| melting point | IC50 (PDE9) | Structure (SMILES) |
| --- | --- | --- |
| 173 to 175 °C |  | CCc1cnc2c(c1)CCN2C(=O)c1cc2[nH]c(=O)c3nnc(CC4CC4)n3c2cc1C (as salt: hydrochloride) [Example 6, 1-(cyclopropylmethyl)-7-[(5-ethyl-2,3-dihydro-11′-pyrrolo[2,3-b]pyridin-1-yl)carbonyl]-8-methyl[1,2,4]triazolo[4,3-a]quinoxalin-4(5H)-one dihydrochloride] |
| 296 to 303 °C | 62 nM | Cc1cc2c(cc1C(=O)N1CCc3cc(Br)cnc31)[nH]c(=O)c1cnc([C@@H]3CCC[C@@H]3O)n12 (racemic) [Example 5, 7-[(5-bromo-2,3-dihydro-1H-pyrrolo[2,3-b]pyridin-1-yl)carbonyl]-1-(cis-2-hydroxycyclopentyl)-8-methylimidazo[1,5-a]quinoxalin-4(5H)-one] |
|  | 62 nM | COCc1cc2c(cc1C(=O)N1CCc3cc(C)cnc31)[nH]c(=O)c1cnc(C3CCOC3)n12 (single isomer, unassigned) [Example 25(a)] |
|  | 152 nM | Cc1cnc2c(c1)CCN2C(=O)c1cc2[nH]c(=O)c3cnc(C4CCOC4)n3c2cc1C (single isomer, unassigned) [Example 26(a)] |
|  | 45 nM | Cc1cnc2c(c1)CCN2C(=O)c1cc2[nH]c(=O)c3cnc(C4CCOC4)n3c2cc1C (single isomer, unassigned) [Example 26(b)] |
|  | 137 nM | COc1cc2c(cn1)N(C(=O)c1cc3[nH]c(=O)c4cnc(C5CCOC5)n4c3cc1C)CC2 (single isomer, unassigned) [Example 27(a)] |
|  | 139 nM | CCc1cnc2c(c1)CCN2C(=O)c1cc2[nH]c(=O)c3cnc(C4CCOC4)n3c2cc1C (single isomer, unassigned) [Example 28(a)] |
|  | 47 nM | CCc1cnc2c(c1)CCN2C(=O)c1cc2[nH]c(=O)c3cnc(C4CCOC4)n3c2cc1C (single isomer, unassigned) [Example 28(b)] |
|  | 24 nM | Cc1cc2c(cc1C(=O)N1CCc3cc(Br)cnc31)[nH]c(=O)c1cnc(C3CCOC3)n12 (single isomer, unassigned) [Example 29(a)] |
|  | 38 nM | Cc1cc2c(cc1C(=O)N1CCc3cc(F)c(F)cc31)[nH]c(=O)c1cnc(C3CCOC3)n12 (single isomer, unassigned) [Example 30(a)] |
|  | 52 nM | Cc1cc2c(cc1C(=O)N1Cc3c(F)ccc(F)c3C1)[nH]c(=O)c1cnc(C3CCOC3)n12 (single isomer, unassigned) [Example 39(a)] |
|  | 14 nM | Cc1cc2c(cc1C(=O)N1Cc3c(F)ccc(F)c3C1)[nH]c(=O)c1cnc(C3CCOC3)n12 (single isomer, unassigned) [Example 39(b)] |
|  | 77 nM | CCc1cnc2c(c1)CCN2C(=O)c1cc2[nH]c(=O)c3cnc(C4CCOC4)n3c2cc1COC (single isomer, unassigned) [Example 40(a)] |
|  | 16 nM | CCc1cnc2c(c1)CCN2C(=O)c1cc2[nH]c(=O)c3cnc(C4CCOC4)n3c2cc1COC (single isomer, unassigned) [Example 40(b)] |
|  | 25 nM | COCc1cc2c(cc1C(=O)N1CCc3cc(Br)cnc31)[nH]c(=O)c1cnc(C3CCOC3)n12 (single isomer, unassigned) [Example 43(a)] |
|  | 26 nM | COCc1cc2c(cc1C(=O)N1Cc3c(F)ccc(F)c3C1)[nH]c(=O)c1cnc(C3CCOC3)n12 (single isomer, unassigned) [Example 45(a)] |
|  | 62 nM | COCc1cc2c(cc1C(=O)N1CCc3cc(OC)ncc31)[nH]c(=O)c1cnc(C3CCOC3)n12 (single isomer, unassigned; (-)) [Example 4(a), (−)-7-[(5-methoxy-2,3-dihydro-1H-pyrrolo[2,3-c]pyridin-1-yl)carbonyl]-8-(methoxymethyl)-1-(tetrahydrofuran-3-yl)imidazo[1,5-a]quinoxalin-4(5H)-one dihydrochloride] |
| 321 to 324 °C (dec.) | 3.5 nM | O=C(c1cc2[nH]c(=O)c3cnc(C4CCOCC4)n3c2cc1OCC1CCOC1)N1CCc2cc(Br)cnc21 (centres unmarked) [Example 1, 7-[(5-bromo-2,3-dihydro-1H-pyrrolo[2,3-b]pyridin-1-yl)carbonyl]-8-(tetrahydrofuran-3-ylmethoxy)-1-(tetrahydro-2H-pyran-4-yl)imidazo[1,5-a]quinoxalin-4(5H)-one] |
| 275 to 277 °C | 51 nM | COc1cc2c(cn1)N(C(=O)c1cc3[nH]c(=O)c4cnc(C5CCOCC5)n4c3cc1F)CC2 [Example 2, 8-fluoro-7-[(5-methoxy-2,3-dihydro-1H-pyrrolo[2,3-c]pyridin-1-yl)carbonyl]-1-(tetrahydro-2H-pyran-4-yl)imidazo[1,5-a]quinoxalin-4(5H)-one] |
| 297 to 299 °C | 22 nM | COc1cc2c(cn1)N(C(=O)c1cc3[nH]c(=O)c4cnc(C5CCCOC5)n4c3cc1C)CC2 (centres unmarked) [Example 3, 7-[(5-methoxy-2,3-dihydro-1H-pyrrolo[2,3-c]pyridin-1-yl)carbonyl]-8-methyl-1-(tetrahydro-2H-pyran-3-yl)imidazo[1,5-a]quinoxalin-4(5H)-one] |
|  | 64 nM | CCc1cnc2c(c1)CCN2C(=O)c1cc2[nH]c(=O)c3nnc(CC4CC4)n3c2cc1C [Example 6, 1-(cyclopropylmethyl)-7-[(5-ethyl-2,3-dihydro-11′-pyrrolo[2,3-b]pyridin-1-yl)carbonyl]-8-methyl[1,2,4]triazolo[4,3-a]quinoxalin-4(5H)-one dihydrochloride] |
| 324 to 326 °C | 2.1 nM | Cc1cc2c(cc1C(=O)N1c3ccc(Cl)cc3CC1C)[nH]c(=O)c1nnc(C3CCOCC3)n12.Cl (centres unmarked) [Example 7] |
| 200 to 202 °C | 2.8 nM | COC1CC(c2nnc3c(=O)[nH]c4cc(C(=O)N5CCc6cc(Cl)ccc65)c(C)cc4n23)C1.Cl (centres unmarked) [Example 8] |

| melting point | IC50 (PDE9) | Structure (SMILES) |
| --- | --- | --- |
|  | 1.3 nM | COCC1Cc2cc(Cl)ccc2N1C(=O)c1cc2[nH]c(=O)c3nnc(C4CCOCC4)n3c2cc1C (centres unmarked) [Example 9] |
| 177 to 180 °C | 4.5 nM | Cl.O=C(c1cc2[nH]c(=O)c3cnc(C4CCOCC4)n3c2cc1OCC1CCOC1)N1CCc2cc(F)ccc21 (centres unmarked) [Example 10] |
|  | 31 nM | Cc1cc2c(cc1C(=O)N1Cc3cccc(CN(C)C)c3C1)[nH]c(=O)c1cnc(C3CCOCC3)n12 [Example 11] |
|  | 3.6 nM | O=C(c1cc2[nH]c(=O)c3cnc(C4CCOCC4)n3c2cc1F)N1CCc2cc(Cl)ccc21 [Example 12] |
| 331 to 333 °C | 14 nM | CCc1cnc2c(c1)CCN2C(=O)c1cc2[nH]c(=O)c3cnc(C4CCOCC4)n3c2cc1C [Example 13] |
|  | 14 nM | COCc1cccc2c1CN(C(=O)c1cc3[nH]c(=O)c4cnc(C5CCOCC5)n4c3cc1C)C2 [Example 14] |
| 188 to 189 °C | 2.8 nM | COC1CC(c2nnc3c(=O)[nH]c4cc(C(=O)N5CCc6cc(Br)ccc65)c(C)cc4n23)C1.Cl (centres unmarked) [Example 15] |
|  | 3.3 nM | CCc1cc2c(cc1C(=O)N1CCc3cc(Cl)ccc31)[nH]c(=O)c1nnc(CC3CC3)n12 [Example 16] |
|  | 8.5 nM | CCc1cc2c(cc1C(=O)N1CCc3cc(F)ccc31)[nH]c(=O)c1nnc(CC3CC3)n12 [Example 17] |
|  | 5.4 nM | CCc1cc2c(cc1C(=O)N1CCc3cc(Br)cnc31)[nH]c(=O)c1nnc(CC3CC3)n12 [Example 18] |
| 314 to 316 °C (dec.) | 22 nM | COc1cc2c(cn1)N(C(=O)c1cc3[nH]c(=O)c4cnc(C5CCOCC5)n4c3cc1Cl)CC2 [Example 21] |
| 197 to 199 °C | 56 nM | Cc1cc2c(cc1C(=O)N1CCc3cc(F)ccc31)[nH]c(=O)c1cnc([C@@H]3CCC[C@@H]3O)n12 [Example 22] |
| 316 to 319 °C (dec.) | 4.9 nM | COc1cc2c(cc1C(=O)N1CCc3cc(Br)cnc31)[nH]c(=O)c1cnc(C3CCOCC3)n12 [Example 23] |
| 268 to 271 °C | 17 nM | Cc1cc2c(cc1C(=O)N1CCc3cc(Br)cnc31)[nH]c(=O)c1nnc(CC3CC3)n12 [Example 24] |
|  | 52 nM | CCc1cnc2c(c1)CCN2C(=O)c1cc2[nH]c(=O)c3cnc(C4CCOC4)n3c2cc1C (centres unmarked) [Example 28] |
|  | 15 nM | Cc1cc2c(cc1C(=O)N1CCc3cc(Br)cnc31)[nH]c(=O)c1cnc(C3CCOC3)n12 (centres unmarked) [Example 29] |
|  | 11 nM | Cc1cc2c(cc1C(=O)N1CCc3cc(F)c(F)cc31)[nH]c(=O)c1cnc(C3CCOC3)n12 (centres unmarked) [Example 30] |
|  | 0.81 nM | Cc1cc2c(cc1C(=O)N1CC(C)(C)c3cc(Br)cnc31)[nH]c(=O)c1nnc(C3CCOCC3)n12 [Example 33] |
|  | 7.5 nM | COC1CC(c2nnc3c(=O)[nH]c4cc(C(=O)N5CCc6cc(Br)cnc65)c(C)cc4n23)C1 (centres unmarked) [Example 34] |
|  | 19 nM | CCc1cc2c(cc1C(=O)N1CCc3cc(Br)cnc31)[nH]c(=O)c1nnc(C3CCC3)n12 [Example 35] |
|  | 53 nM | Cc1cc2c(cc1C(=O)N1Cc3c(F)ccc(F)c3C1)[nH]c(=O)c1nnc(C3CCC3)n12 [Example 36] |
|  | 53 nM | CCc1cc2c(cc1C(=O)N1Cc3c(F)ccc(F)c3C1)[nH]c(=O)c1nnc(C3CCC3)n12 [Example 37] |
|  | 28 nM | Cc1cc2c(cc1C(=O)N1Cc3c(F)ccc(F)c3C1)[nH]c(=O)c1nnc(CC3CC3)n12 [Example 38] |
